Assay results: patent US12138256B2, “Treatment of cardiopulmonary disorders” (Bayer Aktiengesellschaft, priority 2021, dated 2024)
Values joined by “and” are separate entries in the source; they are usually repeats but may differ in a detail not shown here. Equal entries are not always repeated.

System: thromboxane analog U46619 induced PAH in minipigs
Assay: Haemodynamics (PAP, BP) in the anesthetized thromboxane challenged PAH minipig after inhaled (nebulized) application (C-2.1)
Type: in vivo, Göttingen minipig
Conditions: inhaled; for PAP % changes vs prevalue, mean: n = 3; for BP % change vs. baseline / PAP % change vs. baseline: individual animals
Method in brief: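 Anesthetized, ventilated Göttingen minipigs (2-6 kg) given continuous infusion (0.3-0.75 μg/kg/min) to raise mean PAP above 25 mmHg, dosing starting after a 30 min plateau. Compound in 1% DMSO/0.2% citric acid, pH 8, nebulized via Aeroneb Pro into the inspiratory arm (~7 min; stock 300 μg/kg). PAP by Swan-Ganz catheter, BP via carotid catheter.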

[1] = 100 μg/kg nominal dose, time 80 min
[2] = 100 μg/kg nominal dose, time 90 min
[3] = 100 μg/kg nominal dose, time 100 min
[4] = 100 μg/kg nominal dose, time 110 min
[5] = 100 μg/kg nominal dose, time 120 min
[6] = 100 μg/kg nominal dose, time 130 min
[7] = 100 μg/kg nominal dose, time 140 min
[8] = 100 μg/kg nominal dose, time 150 min
[9] = 100 μg/kg nominal dose, time 160 min
[10] = 100 μg/kg nominal dose, time 170 min
[11] = 100 μg/kg nominal dose, time 180 min

## O=C(O)c1ccc(CCN(CCc2ccccc2OCc2ccc(-c3ccc(C(F)(F)F)cc3)cc2Cl)[C@H]2CCCc3nc(C(=O)O)ccc32)cc1 [comparative example 11, (5S)-5-{[2-(4-carboxyphenyl)ethyl][2-(2-{[3-chloro-4′-(trifluoromethyl)[biphenyl]-4-yl]methoxy}phenyl)ethyl]amino}-5,6,7,8-tetrahydroquinoline-2-carboxylic acid]
10 μg/kg nominal dose, time 0 min
  PAP % changes vs prevalue, mean: 0%
10 μg/kg nominal dose, time 10 min
  PAP % changes vs prevalue, mean: 0.6%
10 μg/kg nominal dose, time 20 min
  PAP % changes vs prevalue, mean: 0.2%
10 μg/kg nominal dose, time 30 min
  PAP % changes vs prevalue, mean: −0.7%
10 μg/kg nominal dose, time 40 min
  PAP % changes vs prevalue, mean: −1.5%
10 μg/kg nominal dose, time 50 min
  PAP % changes vs prevalue, mean: −2.3%
10 μg/kg nominal dose, time 60 min
  PAP % changes vs prevalue, mean: −3.5%
10 μg/kg nominal dose, time 70 min
  PAP % changes vs prevalue, mean: −4.2%
10 μg/kg nominal dose, time 80 min
  PAP % changes vs prevalue, mean: −3.7%
10 μg/kg nominal dose, time 90 min
  PAP % changes vs prevalue, mean: −4.3%
10 μg/kg nominal dose, time 100 min
  PAP % changes vs prevalue, mean: −5.3%
10 μg/kg nominal dose, time 110 min
  PAP % changes vs prevalue, mean: −6.2%
10 μg/kg nominal dose, time 120 min
  PAP % changes vs prevalue, mean: −6.7%
10 μg/kg nominal dose, time 130 min
  PAP % changes vs prevalue, mean: −6.2%
10 μg/kg nominal dose, time 140 min
  PAP % changes vs prevalue, mean: −7%
10 μg/kg nominal dose, time 150 min
  PAP % changes vs prevalue, mean: −7.6%
10 μg/kg nominal dose, time 160 min
  PAP % changes vs prevalue, mean: −7.6%
10 μg/kg nominal dose, time 170 min
  PAP % changes vs prevalue, mean: −8.2%
10 μg/kg nominal dose, time 180 min
  PAP % changes vs prevalue, mean: −8.0%
10 μg/kg nominal dose, time 190 min
  PAP % changes vs prevalue, mean: −7.8%
10 μg/kg nominal dose, time 200 min
  PAP % changes vs prevalue, mean: −7.3%
10 μg/kg nominal dose, time 210 min
  PAP % changes vs prevalue, mean: −7.5%
10 μg/kg nominal dose, time 220 min
  PAP % changes vs prevalue, mean: −7.2%
10 μg/kg nominal dose, time 230 min
  PAP % changes vs prevalue, mean: −7.2%
10 μg/kg nominal dose, time 240 min
  PAP % changes vs prevalue, mean: −7.6%
30 μg/kg nominal dose, time 0 min
  PAP % changes vs prevalue, mean: 0%
30 μg/kg nominal dose, time 10 min
  PAP % changes vs prevalue, mean: 0.3%
30 μg/kg nominal dose, time 20 min
  PAP % changes vs prevalue, mean: −2.0%
30 μg/kg nominal dose, time 30 min
  PAP % changes vs prevalue, mean: −4.6%
30 μg/kg nominal dose, time 40 min
  PAP % changes vs prevalue, mean: −7.8%
30 μg/kg nominal dose, time 50 min
  PAP % changes vs prevalue, mean: −9.8%
30 μg/kg nominal dose, time 60 min
  PAP % changes vs prevalue, mean: −11.8%
30 μg/kg nominal dose, time 70 min
  PAP % changes vs prevalue, mean: −14.1%
30 μg/kg nominal dose, time 80 min
  PAP % changes vs prevalue, mean: −14.2%
30 μg/kg nominal dose, time 90 min
  PAP % changes vs prevalue, mean: −14.4%
30 μg/kg nominal dose, time 100 min
  PAP % changes vs prevalue, mean: −14.8%
30 μg/kg nominal dose, time 110 min
  PAP % changes vs prevalue, mean: −15.3%
30 μg/kg nominal dose, time 120 min
  PAP % changes vs prevalue, mean: −15.3%
30 μg/kg nominal dose, time 130 min
  PAP % changes vs prevalue, mean: −15.5%
30 μg/kg nominal dose, time 140 min
  PAP % changes vs prevalue, mean: −15.3%
30 μg/kg nominal dose, time 150 min
  PAP % changes vs prevalue, mean: −16.3%
30 μg/kg nominal dose, time 160 min
  PAP % changes vs prevalue, mean: −16.3%
30 μg/kg nominal dose, time 170 min
  PAP % changes vs prevalue, mean: −14.9%
30 μg/kg nominal dose, time 180 min
  PAP % changes vs prevalue, mean: −14.7%
30 μg/kg nominal dose, time 190 min
  PAP % changes vs prevalue, mean: −15.1%
30 μg/kg nominal dose, time 200 min
  PAP % changes vs prevalue, mean: −15.3%
30 μg/kg nominal dose, time 210 min
  PAP % changes vs prevalue, mean: −13.8%
30 μg/kg nominal dose, time 220 min
  PAP % changes vs prevalue, mean: −13.6%
30 μg/kg nominal dose, time 230 min
  PAP % changes vs prevalue, mean: −12.8%
30 μg/kg nominal dose, time 240 min
  PAP % changes vs prevalue, mean: −13.4%
100 μg/kg nominal dose, time 0 min
  PAP % changes vs prevalue, mean: 0%
100 μg/kg nominal dose, time 10 min
  PAP % changes vs prevalue, mean: −2.1%
100 μg/kg nominal dose, time 20 min
  PAP % changes vs prevalue, mean: −7.2%
100 μg/kg nominal dose, time 30 min
  PAP % changes vs prevalue, mean: −14.6%
100 μg/kg nominal dose, time 40 min
  PAP % changes vs prevalue, mean: −18.1%
100 μg/kg nominal dose, time 50 min
  PAP % changes vs prevalue, mean: −22.2%
100 μg/kg nominal dose, time 60 min
  PAP % changes vs prevalue, mean: −25.1%
100 μg/kg nominal dose, time 70 min
  PAP % changes vs prevalue, mean: −27.0%
[1]
  BP % change vs. baseline: 103.2% and 100.0% and 100.1%
  PAP % change vs. baseline: 103.3% and 100.0% and 98.5%
  PAP % changes vs prevalue, mean: −27.9%
[2]
  BP % change vs. baseline: 98.8% and 98.2% and 100.1%
  PAP % change vs. baseline: 98.8% and 102.2% and 99.6%
  PAP % changes vs prevalue, mean: −28.9%
[3]
  BP % change vs. baseline: 101.0% and 100.0% and 100.1%
  PAP % change vs. baseline: 99.4% and 97.3% and 97.5%
  PAP % changes vs prevalue, mean: −31.1%
[4]
  BP % change vs. baseline: 98.8% and 99.1% and 98.2%
  PAP % change vs. baseline: 94.0% and 90.4% and 94.4%
  PAP % changes vs prevalue, mean: −30.8%
[5]
  BP % change vs. baseline: 98.8% and 98.2% (2×)
  PAP % change vs. baseline: 87.4% and 80.2% and 88.8%
  PAP % changes vs prevalue, mean: −31.3%
[6]
  BP % change vs. baseline: 98.8% and 98.2% and 99.2%
  PAP % change vs. baseline: 84.3% and 75.6% and 86.1%
  PAP % changes vs prevalue, mean: −31.2%
[7]
  BP % change vs. baseline: 98.8% and 96.5% and 102.0%
  PAP % change vs. baseline: 82.2% and 69.4% and 82.1%
  PAP % changes vs prevalue, mean: −31.6%
[8]
  BP % change vs. baseline: 97.7% and 95.6% and 103.0%
  PAP % change vs. baseline: 80.0% and 67.4% and 77.3%
  PAP % changes vs prevalue, mean: −31.1%
[9]
  BP % change vs. baseline: 98.8% and 93.9% and 101.1%
  PAP % change vs. baseline: 78.2% and 66.2% and 74.6%
  PAP % changes vs prevalue, mean: −30.1%
[10]
  BP % change vs. baseline: 98.8% and 95.6% and 99.2%
  PAP % change vs. baseline: 78.1% and 65.9% and 72.4%
  PAP % changes vs prevalue, mean: −31.1%
[11]
  BP % change vs. baseline: 97.7% and 92.1% and 99.2%
  PAP % change vs. baseline: 78.5% and 62.7% and 72.2%
  PAP % changes vs prevalue, mean: −31.1%
100 μg/kg nominal dose, time 190 min
  BP % change vs. baseline: 98.8% and 91.2% and 96.3%
